{"source": "patent US9278963B2", "about": "“Pyrimidine hydroxy amide compounds as histone deacetylase inhibitors” (Acetylon Pharmaceuticals, Inc., priority 2013, dated 2016)", "key": {"HDAC2": {"molecular_target": "HDAC2 (Homo sapiens (Human), UniProt Q92769)", "sequence (Q92769 whole entry)": "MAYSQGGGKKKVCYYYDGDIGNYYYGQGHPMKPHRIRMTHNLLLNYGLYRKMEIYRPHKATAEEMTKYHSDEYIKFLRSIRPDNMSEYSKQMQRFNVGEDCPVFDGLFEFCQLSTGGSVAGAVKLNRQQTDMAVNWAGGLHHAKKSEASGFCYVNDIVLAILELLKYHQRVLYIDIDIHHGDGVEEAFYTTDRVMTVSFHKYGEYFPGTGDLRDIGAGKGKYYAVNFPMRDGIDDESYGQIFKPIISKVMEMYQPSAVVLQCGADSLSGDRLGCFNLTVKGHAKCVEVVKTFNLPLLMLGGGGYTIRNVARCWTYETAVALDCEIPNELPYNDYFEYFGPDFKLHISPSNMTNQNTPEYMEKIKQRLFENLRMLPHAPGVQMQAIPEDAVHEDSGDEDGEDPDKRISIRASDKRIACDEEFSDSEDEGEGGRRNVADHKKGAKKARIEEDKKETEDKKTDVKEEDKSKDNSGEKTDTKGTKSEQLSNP", "assay": "HDAC enzyme assay, HDAC2", "assay_type": "biochemical", "description": "Compounds for testing were diluted in DMSO to 50 fold the final concentration and a ten point three fold dilution series was made. The compounds were diluted in assay buffer (50 mM HEPES, pH 7.4, 100 mM KCl, 0.001% Tween-20, 0.05% BSA, 20 μM TCEP) to 6 fold their final concentration. The HDAC enzymes (purchased from BPS Biosciences) were diluted to 1.5 fold their final concentration in assay buffer. The tripeptide substrate and trypsin at 0.05 μM final concentration were diluted in assay buffer at 6 fold their final concentration. The final enzyme concentrations used in these assays were 3.3 ng/ml (HDAC1), 0.2 ng/ml (HDAC2), 0.08 ng/ml (HDAC3) and 2 ng/ml (HDAC6). The final substrate concentrations used were 16 μM (HDAC1), 10 μM (HDAC2), 17 μM (HDAC3) and 14 μM (HDAC6).\nFive μl of compounds and 20 μl of enzyme were added to wells of a black, opaque 384 well plate in duplicate. Enzyme and compound were incubated together at room temperature for 10 minutes. Five μ1 of substrate was added to each well, the plate was shaken for 60 seconds and placed into a Victor 2 microtiter plate reader. The development of fluorescence was monitored for 60 min and the linear rate of the reaction was calculated. The IC50 was determined using Graph Pad Prism by a four parameter curve fit."}, "[1]": {"tested_on": "BE(2)-C neuroblastoma cells", "assay": "Neuroblastoma maturation gene expression, BE(2)-C", "assay_type": "cell-based", "description": "The following is a quick summary of the HDAC neuroblastoma maturation experiments. Adherent cells were plated into 12- or 24-well plates at 10^6 cells/well and allowed to adhere for 2-4 hours. Compounds were dispensed in DMSO at the indicated concentrations using an automated liquid handling system (Tecan D300) and incubated for the indicated times at 37° C. with 5% CO2. Cells were harvested and RNA extracted using the Qiagen RNeasy Mini Kit according to manufacture protocols. The RNA was quantified and relative expression levels were assessed using the Applied Biosystems TaqMan RNA-to-Ct Kit according to manufacture protocols using the indicated TaqMan probes.\nThe protocol for the maturation experiments was as follows. The day before the experiment, the cells were fed in the flask by doubling the media. The cells were then harvested by adding non-enzymatic cell dissociation media and incubating at 37° C. for 15 minutes. The cells were transferred to a 50 ml tube and pipet to create a single-cell suspension. The cells were washed with PBS buffer. The cells were then resuspended in complete media at 5×10^5 cells per ml. Next, 2 ml of cells were transferred to 24- or 12-well plates. The treatment compounds were then dispensed into each well using the D300 liquid handler. The cells were then incubated for the indicated time at 37° C. The cells were harvested by scraping the cells and transferring to a 2 ml tube. The cells were spun to form a pellet. Next, RNA was extracted using the Qiagen RNeasy Mini kit according to manufacture protocols. The RNA concentration was recorded. The relative RNA levels were assessed using the Applied Biosystems TaqMan RNA-to-Ct kit according to manufacture protocols using the indicated Taqman probes."}, "[2]": {"tested_on": "SH-SY5Y neuroblastoma cells", "assay": "Neuroblastoma cell cycle by flow cytometry, SH-SY5Y", "assay_type": "cell-based", "conditions": "72 hours, 0.5, 2 and 5 μM (ATRA 1 μM)", "description": "The following is a quick summary of the neuroblastoma cell cycle experiments. Adherent cells were plated into 12-well plates at 10^6 cells/well and allowed to adhere for 2-4 hours. Compounds were dispensed in DMSO at the indicated concentrations using an automated liquid handling system (Tecan D300) and incubated for the indicated times at 37° C. with 5% CO2. Cells were harvested with enzyme-free cell disassociation solution and washed with buffered saline. Cells were fixed overnight with 100% ethanol. Cell cycle was assessed by flow cytometry using the Molecular Probes FxCycle PI/RNase Staining Solution kit according to manufacture protocols.\nThe protocol for the cell cycle experiments was as follows. The day before the experiment, the cells were fed in the flask by doubling the media. Then, the cells were harvested by adding non-enzymatic cell dissociation media and incubating at 37° C. for 15 minutes. Next, the cells were transferred to a 50 ml tube and pipet to create a single-cell suspension. The cells were then washed with PBS buffer. Then, the cells were resuspended in complete media at 5×10^5 cells per ml. Next, 2 ml of cells were transferred to 12-well plates. Then, the treatment compounds were dispensed into each well using the D300 liquid handler. The cells were incubated for the indicated time at 37° C. Then, the cells were harvested by adding 500 μl enzyme free cell dissociation solution and incubating at 37° C. for 15 minutes. Next, the cells were spun into a pellet and then washed with PBS. Then, 500 μl 100% EtOH was added and incubated at 4° C. overnight. Then, the cells were washed 3× with PBS. The cells were then resuspended in […] FxCycle PI/RNase solution, and incubated for 2-4 hours at room temperature. Finally, the cells were assayed by flow cytometry.\nSH-SY5Y neuroblastoma cells were treated with varying concentrations of either Compound X or Y, and/or ATRA (all trans retinoic acid). […] In addition, the fold change of p21 was also calculated. […] The HDACi/ATRA combination effects were modest, with little difference compared to single agents."}}}
{"smiles": "O=C(NO)c1cnc(NC2(c3ccccc3)CCN(C(=O)Nc3ccccc3)CC2)nc1", "note": "[Compound 001, N-hydroxy-2-((4-phenyl-1-(phenylcarbamoyl)piperidin-4-yl)amino)pyrimidine-5-carboxamide]", "values": [{"measurement": "IC50", "setting": "HDAC2", "result": 34, "unit": "nM"}, {"measurement": "fold change of genes associated with maturation", "setting": "[1]; 2 days, 3 μM", "result": "induces gene expression changes that are consistent with maturation"}, {"measurement": "fold change of genes associated with maturation", "setting": "[1]; 48 hours, 0.5, 2 and 4 μM", "result": "induces gene expression changes consistent with maturation at 4 μM, but not at 2 μM or less"}, {"measurement": "percent of the cell population in G2, S, G1 and Sub G1 phase", "setting": "[2]", "result": "induced a reduction in G1/G2 and increase in sub-G1"}]}
